Test results published in patent US20110236822A1, “METHOD OF TREATING SEASONED DEVELOPER SOLUTION” (priority 2010, published 2011).
Where two headings read alike, the source gives them in different places.

Experiments:
aquatic life = conditions: from MSDS sheets; cited from earlier work
[1] = Treatment of IR dye with oxidative and reducing reagents to degrade the dye (TABLE I); type: physicochemical
humans = conditions: from MSDS sheets; cited from earlier work
[2] = Treatment of seasoned developer solution with Chlorox bleach solution, residual dye by FTIR; type: physicochemical; conditions: Kodak 955 Developer seasoned, 15 ml bleach diluted to 6%, 2000 rpm
Protocol: An imageable layer coating formulation was prepared with the components in TABLE II below in a solvent mixture of methyl ethyl ketone:water:isopropyl alcohol (70:20:10 weight ratio). The formulation was coated onto a sulfuric acid anodized aluminum substrate and dried in a conveyor oven at 100° C. for 1 minute to provide an imageable layer with a dry coating weight of 1.60 g/m^2. The resulting printing plate precursors were imaged at 110 mJ/cm^2 and 11 Watt using a Kodak 3244x platesetter. The imaged precursors (approx. 11 m^2) were manually developed in 1 liter of Kodak 955 Developer to produce seasoned developer solution (3).
Samples (each 50 ml) of seasoned developer solution (3) were diluted with 150 ml of water and treated with 15 ml of Chlorox® bleach solution diluted to 6% by drop wise addition while stirring at 2000 rpm. The stirring continued for another 15 minutes after the addition. The green color of the seasoned developer solution samples disappeared, forming pale yellow, slightly turbid solutions. […] The extract was concentrated about 50 times and analyzed by FTIR. […]
An imageable layer coating formulation was prepared using the components of TABLE II above except that the IR dye was S0507 from Few Chemicals GmbH. […] The extract was concentrated 50 times by evaporation under nitrogen flow and spotted onto a sodium chloride disk, dried, and analyzed by FTIR. […]

[3] = Treatment of seasoned developer solution with Chlorox bleach solution, residual dye by LC-MS; type: physicochemical; conditions: Kodak 1080 Developer seasoned, diluted, 8 ml bleach diluted to 6%, 6000 rpm
Protocol: In this example, seasoned developer solutions containing IR dye 66e were treated with commercial Chlorox® bleach solution and the degradation products were examined by LC-MS. The seasoned developer solutions were prepared in the lab after development of imaged commercially available, negative-working printing plate precursors containing IR dye 66e with Kodak 1080 Developer under conditions that account for real-life situation at the end of the processor cycle when the seasoned developer solution is being changed. The following calculation of the coating concentration in the seasoned developer solution at the end of the processing cycle takes into account that a Mercury 1035 processor will have a cycle of 3150 m^2 plates/9 gal (34 liters) of developer solution that is the tank capacity. […]
To account for the lower limit, solution C was prepared by dissolving 1.1 m^2 of printing plate coating in 100 ml of developer solution. […] The precipitate (2) and the supernatant liquid (2) were analyzed by LC-MS for the IR dye 66e using the equipment and method described above in Comparative Example 3.
Precipitate (2) was extracted in acetonitrile:isopropanol at 2.5 mg/ml. […] This reference solution (standard) was analyzed to determine the sensitivity of the instrument. […]

[4] = Treatment of IR dye 66e in methanol with Chlorox bleach solution (qualitative, titration, LC-MS); type: physicochemical
[5] = Attempt to precipitate the anionic chromophore of IR Dye I as insoluble salts; type: physicochemical; conditions: IR Dye I 0.3% in methanol; 3% solution of compound in water
[6] = Attempt to precipitate the cationic chromophore of IR dye 66e as insoluble salts with organic acids; type: physicochemical; conditions: IR dye 66e 0.3% in methanol; aqueous organic acid at 3% concentration
[7] = 0.3% IR dye 66e in methanol, 23° C.
[8] = after titration with diluted bleach

Molecule: N.N.O=S(=O)(O)OOS(=O)(=O)O [Ammonium persulfate]
- toxicity to aquatic life (aquatic life): toxic to aquatic life
- Change Noticed [1, 7]: Dye bleached pink

Molecule: O=[N+]([O-])[O-].O=[N+]([O-])[O-].O=[N+]([O-])[O-].O=[N+]([O-])[O-].O=[N+]([O-])[O-].O=[N+]([O-])[O-].[Ce+4].[NH4+].[NH4+] [Ceric ammonium nitrate]
- Change Noticed [1]: Dye bleached pink

Molecule: O=C([O-])c1ccccc1.[Cu+] [Cu(I) benzoate]
- Change Noticed [1]: Dye bleached pink

Molecule: [Cl][Fe]([Cl])[Cl] [Ferric chloride]
- toxicity to aquatic life (aquatic life): toxic to aquatic life
- Change Noticed [1, 7]: Black

Molecule: [Cl][Fe][Cl] [Ferrous chloride]
- toxicity to aquatic life (aquatic life): toxic to aquatic life
- Change Noticed [1, 7]: Black

Molecule: OO [Hydrogen peroxide]
- carcinogenic and mutagenic potential for humans (humans): potential carcinogenic and mutagenic for humans
- Change Noticed ([1]; 0.3% IR dye 66e in methanol, NaOH, room temperature): Pink precipitate
- Change Noticed ([1]; 0.3% IR dye 66e in methanol, Sulfuric acid, 1%, 23° C.): Black
- Change Noticed ([1]; 0.3% IR dye 66e in methanol, Sulfuric acid, 1%, Heat): Dye bleached pink

Molecule: CC(=O)OCCN1/C(=C/C=C2\CCC(/C=C/C3=[N+](CCOC(C)=O)c4ccc5cc(S(=O)(=O)O)ccc5c4C3(C)C)=C2N(c2ccccc2)c2ccccc2)C(C)(C)c2c1ccc1cc(S(=O)(=O)[O-])ccc21 [IR Dye I]
- residual dye in extract of sediment (3) or supernatant liquid (3) by FTIR [2]: No residual IR Dye I was found

Molecule: CN1/C(=C/C=C2\CCCC(/C=C/C3=[N+](C)c4ccccc4C3(C)C)=C2Sc2ccccc2)C(C)(C)c2ccccc21 [IR dye 66e]
- residual dye in supernatant liquid (2) by LC-MS [3]: No trace of IR dye 66e was found
- change of dye solution on bleach treatment ([4]; 0.3% in methanol, liberal amount of Chlorox bleach solution (3.6% sodium hypochlorite), room temperature, shaking): color change from green to light yellow and a yellow precipitate was formed
- change of dye solution, incomplete degradation ([4]; 20 ml solution B titrated with 4.8 ml of 5% bleach (insufficient hypochlorite)): became reddish-brown
- residual dye in filtrate (1) by LC-MS [4, 8]: did not contain IR dye 66e
- residual dye in precipitate (1) by LC-MS [4, 8]: gave a signal for the IR dye 66e
- original dye co-precipitated with its degradation products ([4]; estimated, precipitate (1)): about 1%
- undiluted Chlorox bleach solution needed to bleach 1 mg of dye ([4]; titration, per 1 mg dye, magnetic stirrer): 0.007463 mL
- Chlorox bleach solution needed for degradation of 1 g of dye ([4]; titration, per 1 g dye): 7.46 mL

Molecule: O=C1CCC(=O)N1Br [N-Bromo-succinimide]
- Change Noticed [1]: Dye bleached pink

Molecule: O=S([O-])[O-].[Na+].[Na+] [Na sulfite]
- Change Noticed [1]: Some bleaching,

Molecule: [O-][Cl+3]([O-])([O-])O [Perchloric acid]
- Change Noticed [1]: Dye bleached pink

Molecule: O=S(=O)([O-])OOS(=O)(=O)[O-].[K+].[K+] [Potassium persulfate]
- Change Noticed [1]: Brown

Molecule: O=S([O-])O.[Na+] [Sodium hydrogen sulfite]
- Change Noticed [1]: No reaction

Molecule: O=S([O-])S(=O)(=O)[O-].[Na+].[Na+] [Sodium metabisulfite]
- Change Noticed ([1]; 0.3% IR dye 66e in methanol, Heat): No reaction

Molecule: CCCCCCCCCCCCCCCCCC[N+](C)(C)Cc1ccccc1.[Cl-] [benzyl stearyl dimethyl ammonium chloride]
- precipitation of IR Dye I [5]: None of these compounds precipitated IR Dye I

Molecule: C[N+](C)(C)Cc1ccccc1.[Cl-] [benzyl trimethyl ammonium chloride]
- precipitation of IR Dye I [5]: None of these compounds precipitated IR Dye I

Molecule: naphthalene sulfonic acid
- precipitation of IR dye 66e [6]: None of these organic acids were useful to precipitate the IR dye 66e
